Tests used:
gastric acid secretion [1] = assay: Inhibition of Gastric Acid Secretion in the Conscious Dog (histamine stimulated); format: in vivo, Harrier dogs of either sex
Protocol: (§1) The potency for inhibition of acid secretion has been measured in the male rat and the dog, both intravenously and intraduodenally. When it comes to relevance of the animal test data for potency of a given compound in man for the present type of compounds, it is believed that potency in man will correspond to a level somewhere between what is measured in the male rat and what is measured in the dog.
(§2) Harrier dogs of either sex were used. They were equipped with a duodenal fistula for the administration of test compounds or vehicle and a cannulated ventricular fistula for the collection of gastric secretions.
Before secretory tests the animals were fasted for about 18 h but water was freely allowed. Gastric acid secretion was stimulated by a 4 h infusion of histamine dihydrochloride (12 ml/h) at a dose producing about 80% of the individual maximal secretory response, and gastric juice collected in consecutive 30-min fractions. Test substance or vehicle was given id or iv 1 h after starting the histamine infusion, in a volume of 0.5 ml/kg body weight. The acidity of the gastric juice samples were determined by titration to pH 7.0, and the acid output calculated. The acid output in the collection periods after administration of test substance or vehicle were expressed as fractional responses, setting the acid output in the fraction preceding administration to 1.0. Percentage inhibition was calculated from fractional responses elicited by test compound and vehicle. ED50 -values were obtained by graphical interpolation on log dose - response curves, or estimated from single-dose experiments under the assumption of the same slope of the dose-response curve for all test compounds. All results reported are based on acid output 2 h after dosing.

[2] = Rough Screening Model for bioavailability: ratio ED50 iv/ED50 id of acid secretion inhibition in the rat; set-up: species or system Male rats of the Sprague-Dawley strain; settings: in vivo, ratio of ED50 values, read-out: "Bioavailability" measured by the Rough Screening Model, Rat ED50 iv/ED50 id
Protocol: Since the bioavailability model described above is time and labour intensive, and requires a large number of plasma analyses, also a rough screening model, based on relative potencies to inhibit acid secretion, has been used (see for instance: A. Goth, Medical Pharmacology, 7the ed., C. V. Mosby Company, Saint Louis 1974, p 19). Thus, the ratio (called "Bioavailability" in Table 3) between the ED50 at intravenous administration and the ED50 at intraduodenal administration was calculated.
Before secretory tests, the animals were deprived of food but not water for 20 h. The stomach was repeatedly washed through the gastric cannula, and 6 ml of Ringer-Glucose given s.c. Acid secretion was stimulated with a infusion during 3.5 h (1.2ml/h, s.c.) of pentagastrin and carbachol (20 and 110 nmol/kg h, respectively), during which time gastric secretions were collected in 30-min fractions. […] Gastric juice samples were titrated to pH 7.0 with NaOH, 0.1 mol/L, and acid output calculated as the product of titrant volume and concentration. […] The acid output during the periods after administration of test substances or vehicle were expressed as fractional responses, setting the acid output in the 30-min period preceding administration to 1.0. Percentage inhibition was calculated from the fractional responses elicited by test compound and vehicle. […]

gastric acid secretion [3] = assay: Inhibition of Gastric Acid Secretion in the Conscious Male Rat (pentagastrin and carbachol stimulated); format: in vivo, Male rats of the Sprague-Dawley strain; settings: second hour after administration
Protocol: as §1
Male rats of the Sprague-Dawley strain were used. They were equipped with cannulated fistulae in the stomach (lumen) and the upper part of the duodenum, for collection of gastric secretions and administration of test substances, respectively. A fourteen days recovery period after surgery was allowed before testing commenced.
Before secretory tests, the animals were deprived of food but not water for 20 h. The stomach was repeatedly washed through the gastric cannula, and 6 ml of Ringer-Glucose given s.c. Acid secretion was stimulated with a infusion during 3.5 h (1.2ml/h, s.c.) of pentagastrin and carbachol (20 and 110 nmol/kg h, respectively), during which time gastric secretions were collected in 30-min fractions. Test substances or vehicle were given iv or id at 90 min after starting the stimulation, in a volume of 1 ml/kg. Gastric juice samples were titrated to pH 7.0 with NaOH, 0.1 mol/L, and acid output calculated as the product of titrant volume and concentration. Further calculations were based on group mean responses from 4-5 rats. The acid output during the periods after administration of test substances or vehicle were expressed as fractional responses, setting the acid output in the 30-min period preceding administration to 1.0. Percentage inhibition was calculated from the fractional responses elicited by test compound and vehicle. ED50 -values were obtained from graphical interpolation on log dose-response curves, or estimated from single-dose experiments assuming a similar slope for all dose-response curves. An estimation of the bioavailability was obtained by calculating the ratio ED50 iv/ED50 id. The results reported are based on gastric acid secretion during the second hour after drug/vehicle administration.

[4] = Chemical stability in aqueous buffer solution; format: physicochemical; settings: low concentration
Protocol: The chemical stability of various compounds of the invention has been followed kinetically at low concentration at 37°C. in aqueous buffer solution at different pH values. The results in Table 3 show the half life (t 1/2) at pH 7, that is the time period after which half the amount of the original compound remains unchanged.

[5] = Bioavailability in the Male Rat, AUC method; format: in vivo, Male adult rats of the Sprague-Dawley strain; settings: blood, 4 umol/kg, 4 μmol/kg id and iv, up to 4 h, extrapolated to infinity, read-out: Bioavailability measured by the AUC-method F%, Rat
Source text: The results from tests on two different animal species, rat and dog, vary in regard to measured level of bioavailability for the same compound. We believe that the rat is the more relevant species for bioavailability testing. This is based on our belief that liver metabolism has the most predominant impact upon bioavailability, and that the liver metabolic pattern in man for this type of compounds is quite similar to that of the male rat (more so than of the female rat and the dog). Moreover, test results of bioavailability in the male rat will tend to give a broader "spread" compared with the test results in the dog, and thus the male rat model will give more clear differences in bioavailability between different compounds. […]
Bioavailability is assessed by calculating the quotient between the area under plasma concentration (AUC) curve following introduodenal (id) administration and intravenous (iv) administration from the rat or the dog. […]
The area under the blood concentration vs time curve, AUC, was determined by the linear trapezoidal rule and extrapolated to infinity by dividing the last determined blood concentration by the elimination rate constant in the terminal phase. The systemic bioavailability (F%) following intraduodenal administration was calculated as [formula]

[6] = Bioavailability in the dog, AUC method; format: in vivo, Harrier dogs of either sex; settings: id vs iv, plasma up to 3 h, extrapolated to infinite time, read-out: Bioavailability measured by the AUC-method F%, Dog
Protocol: Bioavailability is assessed by calculating the quotient between the area under plasma concentration (AUC) curve following introduodenal (id) administration and intravenous (iv) administration from the rat or the dog. Low, therapeutically relevant doses, were used. This method is scientifically recognized as valid for assessing bioavailability (see for instance: M. Rowland and T. N. Tozer, Clinical Pharmacokinetics, 2nd ed., Lea & Febiger, London 1989, p 42).
as §2
Blood samples for the analysis of test compound concentration in plasma were taken at intervals up to 3 h after dosing. Plasma was separated and frozen within 30 min after collection. AUC (area under the plasma concentration - time curve), extrapolated to infinite time, was calculated by the linear trapezoidal rule. The systemic bioavailability (F%) after id administration was calculated as 100 × (AUCid /AUCiv).

[O-][S+](Cc1cc(OCC2CC2)ccn1)c1nc2cc(F)ccc2[nH]1 (stereo not drawn) [Example 1, 5-fluoro-2-[[(4-cyclopropyl-methoxy-2-pyridinyl)methyl]sulfinyl]-1H-benzimidazole]
ED50 (gastric acid secretion [1]; Canis lupus familiaris, dog, route id, acid output 2 h after dosing): 1 µmol/kg
inhibition of acid secretion (gastric acid secretion [1]; Dog 1, 1 μmol/kg, iv): 35%
inhibition of acid secretion (in words) (gastric acid secretion [1]; Dog 2, 1 μmol/kg, iv): no effect
inhibition of acid secretion (gastric acid secretion [1]; Dog 3, 2 μmol/kg, iv): 98%
bioavailability [2]: 55%
ED50 (gastric acid secretion [3]; route id, read-out: Inhibition of acid secretion, Rat ED50, id): 2.2 µmol/kg
ED50 (gastric acid secretion [3]; route iv, read-out: Inhibition of acid secretion, Rat ED50, iv): 1.2 µmol/kg
Chemical stability at pH 7, half-life (t 1/2) ([4]; 37°C): 23 h
half-life ([4]; pH 7, 37°C, read-out: Chemical stability at pH 7, half-life (t 1/2) (converted)): 23 h
bioavailability [5]: 82%
bioavailability [6]: 80%

CC(C)Oc1ccnc(C[S+]([O-])c2nc3cc(F)ccc3[nH]2)c1 (stereo not drawn) [Ref., 5-fluoro-2-[[(4-isopropoxy-2-pyridinyl)-methyl]sulfinyl]-1H-benzimidazole, reference compound]
inhibition of acid secretion (gastric acid secretion [1]; Dog 4, 3 μmol/kg, id (footnote to id column)): 95%
inhibition of acid secretion (gastric acid secretion [1]; Dog 5, 3 μmol/kg, id (footnote to id column)): 98%
Inhibition of acid secretion, Rat ED50, id (gastric acid secretion [3]; route id): 4.0 µmol/kg
Inhibition of acid secretion, Rat ED50, iv (gastric acid secretion [3]; route iv): 1.8 µmol/kg

Reference: patent publication US5039808A, “Therapeutically active cyclopropyl substituted compound” (priority 1988, dated 1991)
